The values below come from US11674951B2, “Methods for identifying a treatment for rheumatoid arthritis” (The Brigham and Women's Hospital, Inc., priority 2017, dated 2023).

“And” between values parts separate entries of the source, which are not always exact repeats. Equal values may be shown once.

In assay [1] the test system is PTPN22 transcripts in PBMC. Description: Anti-CD3 antibody induced PTPN22 transcript level in PBMC in absence or presence of drug (RT-PCR, drug/no-drug ratio). Type of assay: cell-based, human. The note with it: anti-CD3 2.5 ug/ml, 24 hours. Here is the method:
PBMCs (1 million cells) of these subjects that were collected before the treatment were stimulated in vitro with anti-CD3 antibodies (2.5 ug/ml) in the absence or presence of corresponding drug (etanercept 250 ug/ml, adalimumab 100 ug/ml) for 24 hours. PBMC from subject BW34 was tested separately with etancercept and adalimumab. RNA was harvested from the stimulated cells and the level of PTPN22 transcripts was quantified with RT-PCR.
The PTPN22 level from cells stimulated in the presence of drug was then divided by the level obtained from cells stimulated in the absence of drug. This drug/no-drug ratio calculated from the 9 drug responders ranged from 1.67 to 2.5, whereas the ratio calculated from the 6 drug non-responders ranged from 0.86 to 1.35 (FIG. 4 and Table 1). […]

Another assay deals with active RA patients. Put plainly: Clinical response of active RA patients (CPIRA study) by Clinical Disease Activity Index (CDAI). Type of assay: in vivo, human. More on the design: key to 2nd visit CDAI / ΔCDAI: CDAI = SJC(28)+TJC(28)+PGA+EGA; PGA/EGA on 1-10, 10 = maximal activity. The note with it: for ΔCDAI: 1st visit minus 2nd visit CDAI; for 2nd visit CDAI: 12 weeks after the treatment started; for number of treated subjects who did not respond (CDAI definition) / number of treated subjects who responded (CDAI definition): seven CPIRA subjects treated per drug. The source says: The Clinical Disease Activity Index (CDAI) is a useful clinical composite score for patients with rheumatoid arthritis. In some embodiments, it can be determined by the following formula: CDAI=SJC(28)+TJC(28)+PGA+EGA, wherein SJC(28) is Swollen 28-Joint Count (shoulders, elbows, wrists, MCPs, PIPs including thumb IP, knees), TJC(28) is Tender 28-Joint Count (shoulders, elbows, wrists, MCPs, PIPs including thumb IP, knees), PGA is Patient Global disease Activity (patient's self assessment of overall RA disease activity on a scale 1-10 where 10 is maximal activity), and EGA is Evaluator's Global disease Activity (evaluator's assessment of overall RA disease activity on a scale 1-10 where 10 is maximal activity). In some embodiments, a subject with an RA can have a CDAI that is equal to or greater than 5, 10, 15, or 20. In some embodiments, the subject has an active RA, and a subject with an active RA can have a CDAI that is equal to or greater than 10. A CDAI that is equal to or greater than 10 often indicates moderate or severe RA.
Active RA patients were recruited through the Central Pain in Rheumatoid Arthritis (CPIRA) study. The PBMC were collected from active RA patients at the time when they switched or started a new RA treatment and were also collected 12 weeks after the treatment started.
PBMC collected from 14 CPIRA subjects before they started either etanercept or adalimumab were analyzed (Table 1). Seven of the […] subjects were treated by etanercept.
The responsiveness to treatment was determined by the following definition.
CDAI decrease>=12 for those with baseline CDAI>22,
CDAI decrease>=6 for those with baseline CDAI>=10,
CDAI decrease>=1 for those with baseline CDAI<10.

Where [2] appears, read: adalimumab non-responders, one value per subject: BW34, BW83.
Where [3] appears, read: adalimumab responders, one value per subject: BW32, BW57, BW85, BW89, BS137.
The mark [4] stands for this setting: etanercept non-responders, one value per subject: BW53, BW80, BW116.
Setting [5] is: etanercept responders, one value per subject: BW39, BW56, BW82, BW110.

In the case of adalimumab, in assay [1] (PBMC of adalimumab non-responders collected before treatment, adalimumab 100 ug/ml, one value per subject: BW34, BW83), the “PTPN22 Drug/no-drug ratio” value is 1.17 and 0.93. The “PTPN22 Drug/no-drug ratio” value in assay [1] (PBMC of adalimumab responders collected before treatment, adalimumab 100 ug/ml, one value per subject: BW32, BW57, BW85, BW89, BS137) is 1.82 and 1.77 and 1.97 and 2.37 and 1.67. For the same substance, in the assay with active RA patients (setting [2]), the ΔCDAI was 4.8 and 1; the “2nd visit CDAI” value was 24.2 and 13. In the assay on active RA patients (setting [3]), the ΔCDAI is 15.2 and 10 and 21 and 23 and 13; the “2nd visit CDAI” value is 0 and 9 and 25 and 34 and 18. Further, in the assay with active RA patients, the “number of treated subjects who did not respond (CDAI definition)” value is given as “two” and the “number of treated subjects who responded (CDAI definition)” value is listed as “five”.
With etanercept, the “PTPN22 Drug/no-drug ratio” value in assay [1] (PBMC of etanercept non-responders collected before treatment, etanercept 250 ug/ml, one value per subject: BW53, BW80, BW116, BW34*) is 0.86 and 1.18 and 1.23 and 1.35. Moreover, the “PTPN22 Drug/no-drug ratio” value in assay [1] (PBMC of etanercept responders collected before treatment, etanercept 250 ug/ml, one value per subject: BW39, BW56, BW82, BW110) is 2.14 and 2.04 and 1.82 and 2.5. Moreover, in the assay on active RA patients (setting [4]), the ΔCDAI was 1.5 and −0.5 and 6; the “2nd visit CDAI” value is 25.5 and 21.5 and 23. In the assay with active RA patients (setting [5]), the ΔCDAI was 12.5 (2×) and 9 and 23; the “2nd visit CDAI” value was 0 and 6.5 and 6 and 12. In the assay on active RA patients, the “number of treated subjects who did not respond (CDAI definition)” value is on record as “three” and the “number of treated subjects who responded (CDAI definition)” value was “Four”.
